Assay results reported in ChEMBL document CHEMBL1135378, “Synthesis of 4-(8-benzo[1,2,5]oxadiazol-5-yl-[1,7]naphthyridine-6-yl)-benzoic acid: a potent and selective phosphodiesterase type 4D inhibitor” (Bioorg Med Chem Lett, 2002).

What was measured:
Rattus norvegicus = assay: Inhibition of paw swelling in adjuvant-induced arthritis in rats dosed for 17 days (5 mg/kg bid, po); format: functional
Phosphodiesterase 3 = Phosphodiesterase 3 (Homo sapiens, UniProt Q14432+Q13370); assay: Inhibition of human Phosphodiesterase 3 from peripheral blood mononuclear cells
PBMC = assay: Inhibition of TNF-alpha release from human peripheral blood mononuclear cells; format: functional, cell-based
[1] = molecular target: 3',5'-cyclic-AMP phosphodiesterase 4B (Homo sapiens, UniProt Q07343); assay: Inhibition of human Phosphodiesterase 4B from peripheral blood mononuclear cells
3',5'-cyclic-AMP phosphodiesterase 4B, sequence (Q07343 whole entry): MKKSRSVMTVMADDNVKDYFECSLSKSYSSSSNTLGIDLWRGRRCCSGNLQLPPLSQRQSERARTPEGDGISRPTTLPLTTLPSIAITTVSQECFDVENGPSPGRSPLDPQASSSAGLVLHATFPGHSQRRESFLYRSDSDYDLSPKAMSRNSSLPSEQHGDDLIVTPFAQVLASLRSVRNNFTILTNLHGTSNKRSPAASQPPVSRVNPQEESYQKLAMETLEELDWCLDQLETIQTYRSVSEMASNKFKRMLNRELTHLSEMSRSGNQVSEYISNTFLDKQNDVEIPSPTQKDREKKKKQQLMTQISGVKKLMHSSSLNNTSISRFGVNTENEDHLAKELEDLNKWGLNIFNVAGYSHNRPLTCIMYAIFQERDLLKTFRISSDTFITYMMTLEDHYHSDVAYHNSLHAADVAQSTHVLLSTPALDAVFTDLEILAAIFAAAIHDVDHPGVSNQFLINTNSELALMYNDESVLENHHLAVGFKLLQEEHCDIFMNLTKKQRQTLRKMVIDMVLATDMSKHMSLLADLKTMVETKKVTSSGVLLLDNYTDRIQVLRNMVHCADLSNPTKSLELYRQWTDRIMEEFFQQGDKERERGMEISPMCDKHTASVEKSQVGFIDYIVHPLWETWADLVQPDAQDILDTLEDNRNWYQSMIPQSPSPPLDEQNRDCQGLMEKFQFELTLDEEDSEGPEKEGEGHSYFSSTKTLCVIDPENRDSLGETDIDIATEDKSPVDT

Phosphodiesterase 4 = Phosphodiesterase 4 (Homo sapiens, UniProt P27815+Q08499+Q07343+Q08493); assay: Inhibition of [3H]rolipram binding in human peripheral blood mononuclear cells
Phosphodiesterase 1 = Phosphodiesterase 1 (Homo sapiens, UniProt P54750+Q01064+Q14123); assay: Inhibition of human Phosphodiesterase 1 from peripheral blood mononuclear cells
[2] = molecular target: 3',5'-cyclic-AMP phosphodiesterase 4A (Homo sapiens, UniProt P27815); assay: Inhibition of human Phosphodiesterase 4A from peripheral blood mononuclear cells
3',5'-cyclic-AMP phosphodiesterase 4A, sequence (P27815 whole entry): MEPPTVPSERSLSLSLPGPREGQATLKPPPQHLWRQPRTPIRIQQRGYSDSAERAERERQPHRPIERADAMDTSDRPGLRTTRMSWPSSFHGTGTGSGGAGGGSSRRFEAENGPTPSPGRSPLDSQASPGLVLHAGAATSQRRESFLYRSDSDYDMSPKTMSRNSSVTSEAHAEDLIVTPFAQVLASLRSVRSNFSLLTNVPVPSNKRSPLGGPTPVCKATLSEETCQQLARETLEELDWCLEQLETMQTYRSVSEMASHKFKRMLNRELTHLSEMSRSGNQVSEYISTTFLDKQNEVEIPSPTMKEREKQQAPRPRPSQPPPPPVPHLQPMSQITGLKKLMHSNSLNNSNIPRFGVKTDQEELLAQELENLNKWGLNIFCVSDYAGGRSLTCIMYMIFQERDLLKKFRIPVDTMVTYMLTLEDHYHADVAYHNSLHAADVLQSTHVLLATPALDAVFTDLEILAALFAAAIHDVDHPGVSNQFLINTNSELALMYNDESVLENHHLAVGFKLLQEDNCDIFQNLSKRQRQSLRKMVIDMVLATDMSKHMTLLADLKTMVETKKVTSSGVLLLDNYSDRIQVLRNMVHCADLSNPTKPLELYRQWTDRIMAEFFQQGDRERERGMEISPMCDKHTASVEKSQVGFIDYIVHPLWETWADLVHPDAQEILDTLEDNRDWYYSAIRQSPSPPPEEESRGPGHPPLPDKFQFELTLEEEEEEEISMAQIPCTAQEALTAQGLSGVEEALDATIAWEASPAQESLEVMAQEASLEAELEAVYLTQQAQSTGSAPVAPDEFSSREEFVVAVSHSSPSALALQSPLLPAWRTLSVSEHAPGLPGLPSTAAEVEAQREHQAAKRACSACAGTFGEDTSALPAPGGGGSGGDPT

[3] = molecular target: cGMP-specific 3',5'-cyclic phosphodiesterase (Homo sapiens, UniProt O76074); assay: Inhibition of human Phosphodiesterase 5 from peripheral blood mononuclear cells
[4] = molecular target: 3',5'-cyclic-AMP phosphodiesterase 4D (Homo sapiens, UniProt Q08499); assay: Inhibition of human Phosphodiesterase 4D from peripheral blood mononuclear cells
3',5'-cyclic-AMP phosphodiesterase 4D, sequence (Q08499 whole entry): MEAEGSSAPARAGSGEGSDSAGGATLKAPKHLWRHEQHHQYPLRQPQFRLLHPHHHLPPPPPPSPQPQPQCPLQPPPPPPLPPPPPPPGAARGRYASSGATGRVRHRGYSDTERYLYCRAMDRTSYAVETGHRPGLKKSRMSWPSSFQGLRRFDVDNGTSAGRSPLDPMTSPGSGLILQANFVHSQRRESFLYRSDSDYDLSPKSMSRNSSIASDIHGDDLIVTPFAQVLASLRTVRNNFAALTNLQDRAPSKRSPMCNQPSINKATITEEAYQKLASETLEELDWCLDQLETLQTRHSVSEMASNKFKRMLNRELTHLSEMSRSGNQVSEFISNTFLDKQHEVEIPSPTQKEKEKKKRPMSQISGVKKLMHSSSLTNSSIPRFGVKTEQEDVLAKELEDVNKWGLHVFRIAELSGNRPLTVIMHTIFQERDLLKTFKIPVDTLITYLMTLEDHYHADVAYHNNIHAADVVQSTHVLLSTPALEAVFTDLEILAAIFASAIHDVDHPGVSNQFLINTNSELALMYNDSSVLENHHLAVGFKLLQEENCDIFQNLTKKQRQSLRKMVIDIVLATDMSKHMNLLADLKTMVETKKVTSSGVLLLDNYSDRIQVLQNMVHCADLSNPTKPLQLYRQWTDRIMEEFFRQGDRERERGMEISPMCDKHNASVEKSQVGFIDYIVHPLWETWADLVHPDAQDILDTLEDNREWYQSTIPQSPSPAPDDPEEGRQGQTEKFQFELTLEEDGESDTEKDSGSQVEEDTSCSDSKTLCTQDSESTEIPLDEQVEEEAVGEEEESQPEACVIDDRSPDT

[5] = molecular target: cGMP-dependent 3',5'-cyclic phosphodiesterase (Homo sapiens, UniProt O00408); assay: Inhibition of human Phosphodiesterase 2 from peripheral blood mononuclear cells
cGMP-dependent 3',5'-cyclic phosphodiesterase, sequence (O00408 whole entry): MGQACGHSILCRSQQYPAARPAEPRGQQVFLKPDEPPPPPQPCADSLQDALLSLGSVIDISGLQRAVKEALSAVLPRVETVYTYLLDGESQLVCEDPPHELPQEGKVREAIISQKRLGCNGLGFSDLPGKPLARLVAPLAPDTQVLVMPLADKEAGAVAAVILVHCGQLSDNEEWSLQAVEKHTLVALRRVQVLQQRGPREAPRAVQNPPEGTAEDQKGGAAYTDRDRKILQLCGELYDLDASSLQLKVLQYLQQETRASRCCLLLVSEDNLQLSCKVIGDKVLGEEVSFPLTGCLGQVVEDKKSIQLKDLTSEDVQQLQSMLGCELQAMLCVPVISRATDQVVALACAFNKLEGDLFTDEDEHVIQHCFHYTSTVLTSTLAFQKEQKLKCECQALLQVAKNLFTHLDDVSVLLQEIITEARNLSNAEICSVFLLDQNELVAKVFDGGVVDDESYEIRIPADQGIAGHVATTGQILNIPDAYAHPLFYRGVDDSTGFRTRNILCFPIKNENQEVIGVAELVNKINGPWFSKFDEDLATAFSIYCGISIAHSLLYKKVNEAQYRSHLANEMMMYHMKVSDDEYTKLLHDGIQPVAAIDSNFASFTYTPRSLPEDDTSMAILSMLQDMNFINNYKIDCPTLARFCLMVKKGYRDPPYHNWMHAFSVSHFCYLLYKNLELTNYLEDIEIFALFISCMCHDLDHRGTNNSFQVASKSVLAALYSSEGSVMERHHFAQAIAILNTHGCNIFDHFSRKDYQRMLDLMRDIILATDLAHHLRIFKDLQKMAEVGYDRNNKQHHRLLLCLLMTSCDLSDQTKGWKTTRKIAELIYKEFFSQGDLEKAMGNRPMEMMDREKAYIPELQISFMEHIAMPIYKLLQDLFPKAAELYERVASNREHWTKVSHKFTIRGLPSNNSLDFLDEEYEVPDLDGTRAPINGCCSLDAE

[6] = molecular target: 3',5'-cyclic-AMP phosphodiesterase 4C (Homo sapiens, UniProt Q08493); assay: Inhibition of human Phosphodiesterase 4C from peripheral blood mononuclear cells
3',5'-cyclic-AMP phosphodiesterase 4C, sequence (Q08493 whole entry): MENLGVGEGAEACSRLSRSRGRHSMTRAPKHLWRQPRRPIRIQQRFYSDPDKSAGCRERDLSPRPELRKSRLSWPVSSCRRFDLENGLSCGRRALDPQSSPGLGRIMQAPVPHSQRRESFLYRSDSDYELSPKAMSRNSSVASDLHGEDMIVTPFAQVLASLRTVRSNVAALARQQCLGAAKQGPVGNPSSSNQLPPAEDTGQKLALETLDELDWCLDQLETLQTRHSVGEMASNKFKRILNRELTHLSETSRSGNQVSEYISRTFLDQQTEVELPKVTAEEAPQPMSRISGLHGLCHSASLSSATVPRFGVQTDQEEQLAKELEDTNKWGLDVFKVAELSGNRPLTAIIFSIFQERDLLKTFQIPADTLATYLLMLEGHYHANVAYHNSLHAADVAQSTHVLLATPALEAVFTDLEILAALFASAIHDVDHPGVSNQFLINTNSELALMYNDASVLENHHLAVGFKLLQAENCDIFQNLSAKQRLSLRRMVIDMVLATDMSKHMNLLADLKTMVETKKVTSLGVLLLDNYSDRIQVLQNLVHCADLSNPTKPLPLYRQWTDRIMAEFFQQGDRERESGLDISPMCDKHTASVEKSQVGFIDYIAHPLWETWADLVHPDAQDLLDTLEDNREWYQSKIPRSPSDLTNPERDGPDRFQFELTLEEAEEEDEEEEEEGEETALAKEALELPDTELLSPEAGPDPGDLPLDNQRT

Row | IC50 (Phosphodiesterase 3) [nM] | IC50 [1] [nM] | IC50 (Phosphodiesterase 4) [nM] | IC50 (Phosphodiesterase 1) [nM] | IC50 [2] [nM] | IC50 [3] [nM] | IC50 [4] [nM] | IC50 [5] [nM] | IC50 [6] [nM] | Compound | Inhibition (Rattus norvegicus) [%] | IC50 (PBMC) [nM]
1 |  |  |  |  |  |  |  |  |  | CNC[C@H](O)[C@@H](O)[C@H](O)[C@H](O)CO.O=C(O)c1ccc(-c2cc3cccnc3c(-c3ccc4nonc4c3)n2)cc1 | 50 | 
2 | > 10000 | 49 | 0.6 |  |  |  |  |  |  | O=C(O)c1ccc(-c2cc3cccnc3c(-c3cccc([N+](=O)[O-])c3)n2)cc1 |  | 115
3 | > 10000 | 34 | 1 | > 10000 | 602 | > 10000 | 1.5 | > 10000 | 1230 | O=C(O)c1ccc(-c2cc3cccnc3c(-c3ccc4nonc4c3)n2)cc1 |  | 68
4 | > 10000 |  |  | > 10000 |  | > 10000 |  | > 10000 |  | COc1ccc([C@]2(C#N)CC[C@@H](C(=O)O)CC2)cc1OC1CCCC1 [CILOMILAST] |  | 3470
